Key:
[1] = Drug uptake in lysosomes of BPAEC at 1 uM after 30 mins by fluorescence microscopy; assay type: ADME, Bos taurus, Lysosome; conditions: cattle, 0.5 h
[2] = Dissociation constant, pKa of the compound; assay type: physicochemical

SMILES	Drug uptake [1]	pKa [2]
CC1=CC(C)=[N+]2C1=C(c1ccc(N(C)C)cc1)c1c(C)cc(C)n1[B-]2(F)F	Active	3.2
CCN(CC)c1ccc(C2=C3C(C)=CC(C)=[N+]3[B-](F)(F)n3c(C)cc(C)c32)cc1	Active	5.2
CCN(CCCC(=O)OC)c1ccc(C2=C3C(C)=CC(C)=[N+]3[B-](F)(F)n3c(C)cc(C)c32)cc1	Active	3.2
CCN(CC)c1ccc(C2=C3C=CC(CCC(=O)OC)=[N+]3[B-](F)(F)n3c(CCC(=O)OC)ccc32)cc1	Active	3.2

Source: ChEMBL document CHEMBL1777758, “Selective labeling and monitoring pH changes of lysosomes in living cells with fluorogenic pH sensors” (Bioorg Med Chem Lett, 2011)
